Assay results as given in patent US7618816B2, “Metal-binding therapeutic peptides” (Ontherix, Inc., priority 2005, dated 2009).
Where no end group is shown, it is not given here.

What was measured:
Test in all cases: Uptake of SA-HRP::MBD peptide complexes
Type in all cases: cell-based, human
[1] = test system: SW-620; conditions: for SA-HRP uptake, Cyt.: SW-620, cytoplasmic; for SA-HRP uptake, Nuc.: SW-620, nuclear
Experimental: (§1) HEK293 kidney cell line and 54 tumor cell lines obtained from the National Cancer Institute and passaged in RPMI1640 cell culture medium supplemented with 10% fetal bovine serum and 10 uM FeCl2. Uptake of streptavidin-horseradish peroxidase (SA-HRP) conjugate and of various SA-HRP::MBD peptide complexes was determined as described (Singh et al. J Biol Chem. 279 (1):477-87 [2004]) using biotinylated MBD9 ([…]) (SEQ ID NO: 10) and MBD21 ([…]) (SEQ ID NO: 4) peptides and SA-HRP. Nuclear and cytoplasmic localization of these proteins was also determined in each case. […] In order to establish the underlying molecular mechanism for this variability, we cross-linked MBD21 peptide to the following cell surface markers at 4 degrees Celsius as previously described (Singh et al. J Biol Chem. 279 (1):477-87 [2004]): transferrin receptor 1, caveolin 1, PCNA, integrins alpha v, 2, 5 and 6, integrins beta 1, 3 and 5. […] Based on the strength of these correlations, it was possible to derive crude predictive formulae for MBD-mediated uptake based on the rate of cross-linking to surface markers. Such predictive formulas could form the basis for a diagnostic procedure to select appropriate targets for MBD-based therapies.

[2] = test system: MCF 7; conditions: for SA-HRP uptake, Cyt.: MCF 7, cytoplasmic; for SA-HRP uptake, Nuc.: MCF 7, nuclear
Experimental: as §1

[3] = test system: OVCAR-3; conditions: for SA-HRP uptake, Cyt.: OVCAR-3, cytoplasmic; for SA-HRP uptake, Nuc.: OVCAR-3, nuclear
Experimental: as §1

[4] = test system: BT-549; conditions: for SA-HRP uptake, Cyt.: BT-549, cytoplasmic; for SA-HRP uptake, Nuc.: BT-549, nuclear
Experimental: as §1

[5] = test system: EKVX; conditions: for SA-HRP uptake, Cyt.: cytoplasmic; for SA-HRP uptake, Nuc.: nuclear
Experimental: as §1

[6] = test system: HT-29; conditions: for SA-HRP uptake, Cyt.: HT-29, cytoplasmic; for SA-HRP uptake, Nuc.: HT-29, nuclear
Experimental: as §1

[7] = test system: ACHN; conditions: for SA-HRP uptake, Cyt.: cytoplasmic; for SA-HRP uptake, Nuc.: nuclear
Experimental: as §1

[8] = test system: A498; conditions: for SA-HRP uptake, Cyt.: A498, cytoplasmic; for SA-HRP uptake, Nuc.: A498, nuclear
Experimental: as §1

[9] = test system: A704; conditions: for SA-HRP uptake, Cyt.: A704, cytoplasmic; for SA-HRP uptake, Nuc.: A704, nuclear
Experimental: as §1

[10] = test system: WIDR; conditions: for SA-HRP uptake, Cyt.: cytoplasmic; for SA-HRP uptake, Nuc.: nuclear
Experimental: as §1

[11] = test system: OVCAR-5; conditions: for SA-HRP uptake, Cyt.: OVCAR-5, cytoplasmic; for SA-HRP uptake, Nuc.: OVCAR-5, nuclear
Experimental: as §1

[12] = test system: COLO 205; conditions: for SA-HRP uptake, Cyt.: COLO 205, cytoplasmic; for SA-HRP uptake, Nuc.: COLO 205, nuclear
Experimental: as §1

[13] = test system: Lewis Lung; conditions: for SA-HRP uptake, Cyt.: cytoplasmic; for SA-HRP uptake, Nuc.: nuclear
Experimental: as §1

[14] = test system: LOVO; conditions: for SA-HRP uptake, Cyt.: cytoplasmic; for SA-HRP uptake, Nuc.: nuclear
Experimental: as §1

[15] = test system: UO-31; conditions: for SA-HRP uptake, Cyt.: UO-31, cytoplasmic; for SA-HRP uptake, Nuc.: UO-31, nuclear
Experimental: as §1

[16] = test system: NCI-H522; conditions: for SA-HRP uptake, Cyt.: NCI-H522, cytoplasmic; for SA-HRP uptake, Nuc.: NCI-H522, nuclear
Experimental: as §1

[17] = test system: DU-145; conditions: for SA-HRP uptake, Cyt.: DU-145, cytoplasmic; for SA-HRP uptake, Nuc.: DU-145, nuclear
Experimental: as §1

[18] = test system: HCT-15; conditions: for SA-HRP uptake, Cyt.: HCT-15, cytoplasmic; for SA-HRP uptake, Nuc.: HCT-15, nuclear
Experimental: as §1

[19] = test system: HOP 92; conditions: for SA-HRP uptake, Cyt.: HOP 92, cytoplasmic; for SA-HRP uptake, Nuc.: HOP 92, nuclear
Experimental: as §1

[20] = test system: CAKI-1; conditions: for SA-HRP uptake, Cyt.: CAKI-1, cytoplasmic; for SA-HRP uptake, Nuc.: CAKI-1, nuclear
Experimental: as §1

[21] = test system: SK-0V-3; conditions: for SA-HRP uptake, Cyt.: SK-0V-3, cytoplasmic; for SA-HRP uptake, Nuc.: SK-0V-3, nuclear
Experimental: as §1

[22] = test system: RPMI 8226; conditions: for SA-HRP uptake, Cyt.: RPMI 8226, cytoplasmic; for SA-HRP uptake, Nuc.: RPMI 8226, nuclear
Experimental: as §1

[23] = test system: HS-578T; conditions: for SA-HRP uptake, Cyt.: cytoplasmic; for SA-HRP uptake, Nuc.: nuclear
Experimental: as §1

KKGFYKKKKQCRPSKGRKRGFCWNGRK [MBD9]
SA-HRP uptake, Cyt. [1]: 3.2 ng
SA-HRP uptake, Nuc. [1]: 0.7 ng
SA-HRP uptake, Cyt. [2]: 26.7 ng
SA-HRP uptake, Nuc. [2]: 19.8 ng
SA-HRP uptake, Cyt. [3]: 2.4 ng
SA-HRP uptake, Nuc. [3]: 4.6 ng
SA-HRP uptake, Cyt. [4]: 7.2 ng
SA-HRP uptake, Nuc. [4]: 2.1 ng
SA-HRP uptake, Cyt. [5]: 7.2 ng
SA-HRP uptake, Nuc. [5]: 4.2 ng
SA-HRP uptake, Cyt. [6]: 6.1 ng
SA-HRP uptake, Nuc. [6]: 7.7 ng
SA-HRP uptake, Cyt. [7]: 9.6 ng
SA-HRP uptake, Nuc. [7]: 2.9 ng
SA-HRP uptake, Cyt. [8]: 28.5 ng
SA-HRP uptake, Nuc. [8]: 12.4 ng
SA-HRP uptake, Cyt. [9]: 10.9 ng
SA-HRP uptake, Nuc. [9]: 1.8 ng
SA-HRP uptake, Cyt. [10]: 3.4 ng
SA-HRP uptake, Nuc. [10]: 0.7 ng
SA-HRP uptake, Cyt. [11]: 2.7 ng
SA-HRP uptake, Nuc. [11]: 1.2 ng
SA-HRP uptake, Cyt. [12]: 2.9 ng
SA-HRP uptake, Nuc. [12]: 0.9 ng
SA-HRP uptake, Cyt. [13]: 8.6 ng
SA-HRP uptake, Nuc. [13]: 7.2 ng
SA-HRP uptake, Cyt. [14]: 12.6 ng
SA-HRP uptake, Nuc. [14]: 5.4 ng
SA-HRP uptake, Cyt. [15]: 4.6 ng
SA-HRP uptake, Nuc. [15]: 1.0 ng
SA-HRP uptake, Cyt. [16]: 9.1 ng
SA-HRP uptake, Nuc. [16]: 3.7 ng
SA-HRP uptake, Cyt. [17]: 3.1 ng
SA-HRP uptake, Nuc. [17]: <0.04 ng
SA-HRP uptake, Cyt. [18]: 4.0 ng
SA-HRP uptake, Nuc. [18]: 0.8 ng
SA-HRP uptake, Cyt. [19]: 2.5 ng
SA-HRP uptake, Nuc. [19]: 1.6 ng
SA-HRP uptake, Cyt. [20]: 7.4 ng
SA-HRP uptake, Nuc. [20]: 1.8 ng
SA-HRP uptake, Cyt. [21]: 2.0 ng
SA-HRP uptake, Nuc. [21]: 0.4 ng
SA-HRP uptake, Cyt. [22]: 6.5 ng
SA-HRP uptake, Nuc. [22]: 0.0 ng
SA-HRP uptake, Cyt. [23]: 6.8 ng
SA-HRP uptake, Nuc. [23]: 2.3 ng

KKGFYKKKQCRPSKGRKRGFCWAVDKYG (cysteine pairing not given here; also: biotinylated (position not given here), complexed with SA-HRP) [MBD21]
SA-HRP uptake, Cyt. [1]: 6.3 ng
SA-HRP uptake, Nuc. [1]: 2.3 ng
SA-HRP uptake, Cyt. [2]: 11.1 ng
SA-HRP uptake, Nuc. [2]: 5.8 ng
SA-HRP uptake, Cyt. [3]: <0.04 ng
SA-HRP uptake, Nuc. [3]: 3.2 ng
SA-HRP uptake, Cyt. [4]: 4.8 ng
SA-HRP uptake, Nuc. [4]: 3.3 ng
SA-HRP uptake, Cyt. [5]: 7.7 ng
SA-HRP uptake, Nuc. [5]: 7.3 ng
SA-HRP uptake, Cyt. [6]: 3.5 ng
SA-HRP uptake, Nuc. [6]: 9.5 ng
SA-HRP uptake, Cyt. [7]: 8.0 ng
SA-HRP uptake, Nuc. [7]: 3.1 ng
SA-HRP uptake, Cyt. [8]: 35.3 ng
SA-HRP uptake, Nuc. [8]: 33.4 ng
SA-HRP uptake, Cyt. [9]: 4.5 ng
SA-HRP uptake, Nuc. [9]: 1.2 ng
SA-HRP uptake, Cyt. [10]: 2.8 ng
SA-HRP uptake, Nuc. [10]: 1.0 ng
SA-HRP uptake, Cyt. [11]: 1.3 ng
SA-HRP uptake, Nuc. [11]: 1.5 ng
SA-HRP uptake, Cyt. [12]: 2.1 ng
SA-HRP uptake, Nuc. [12]: 0.9 ng
SA-HRP uptake, Cyt. [13]: 6.4 ng
SA-HRP uptake, Nuc. [13]: 3.4 ng
SA-HRP uptake, Cyt. [14]: 8.7 ng
SA-HRP uptake, Nuc. [14]: 3.8 ng
SA-HRP uptake, Cyt. [15]: 1.3 ng
SA-HRP uptake, Nuc. [15]: 3.3 ng
SA-HRP uptake, Cyt. [16]: 5.1 ng
SA-HRP uptake, Nuc. [16]: 1.7 ng
SA-HRP uptake, Cyt. [17]: 25.7 ng
SA-HRP uptake, Nuc. [17]: 3.3 ng
SA-HRP uptake, Cyt. [18]: 2.7 ng
SA-HRP uptake, Nuc. [18]: 0.7 ng
SA-HRP uptake, Cyt. [19]: 1.5 ng
SA-HRP uptake, Nuc. [19]: 1.6 ng
SA-HRP uptake, Cyt. [20]: 2.8 ng
SA-HRP uptake, Nuc. [20]: 1.0 ng
SA-HRP uptake, Cyt. [21]: <0.04 ng
SA-HRP uptake, Nuc. [21]: <0.04 ng
SA-HRP uptake, Cyt. [22]: 3.6 ng
SA-HRP uptake, Nuc. [22]: 0.0 ng
SA-HRP uptake, Cyt. [23]: 2.8 ng
SA-HRP uptake, Nuc. [23]: 2.3 ng
